Laboratory results as given in the Kinase Knowledgebase extract (Sharma et al. 2016).

Assays:
Assay in all cases: Enzyme Assay
[1] = molecular target: PIK3CD (Human) (UniProt O00329)
[2] = molecular target: PIK3CB (Human) (UniProt P42338)
[3] = molecular target: PIK3CG (human) (UniProt P48736)
[4] = molecular target: PIK3CA (human) (UniProt P42336)
Chain of PIK3CA (human) (P42336 whole entry, looked up): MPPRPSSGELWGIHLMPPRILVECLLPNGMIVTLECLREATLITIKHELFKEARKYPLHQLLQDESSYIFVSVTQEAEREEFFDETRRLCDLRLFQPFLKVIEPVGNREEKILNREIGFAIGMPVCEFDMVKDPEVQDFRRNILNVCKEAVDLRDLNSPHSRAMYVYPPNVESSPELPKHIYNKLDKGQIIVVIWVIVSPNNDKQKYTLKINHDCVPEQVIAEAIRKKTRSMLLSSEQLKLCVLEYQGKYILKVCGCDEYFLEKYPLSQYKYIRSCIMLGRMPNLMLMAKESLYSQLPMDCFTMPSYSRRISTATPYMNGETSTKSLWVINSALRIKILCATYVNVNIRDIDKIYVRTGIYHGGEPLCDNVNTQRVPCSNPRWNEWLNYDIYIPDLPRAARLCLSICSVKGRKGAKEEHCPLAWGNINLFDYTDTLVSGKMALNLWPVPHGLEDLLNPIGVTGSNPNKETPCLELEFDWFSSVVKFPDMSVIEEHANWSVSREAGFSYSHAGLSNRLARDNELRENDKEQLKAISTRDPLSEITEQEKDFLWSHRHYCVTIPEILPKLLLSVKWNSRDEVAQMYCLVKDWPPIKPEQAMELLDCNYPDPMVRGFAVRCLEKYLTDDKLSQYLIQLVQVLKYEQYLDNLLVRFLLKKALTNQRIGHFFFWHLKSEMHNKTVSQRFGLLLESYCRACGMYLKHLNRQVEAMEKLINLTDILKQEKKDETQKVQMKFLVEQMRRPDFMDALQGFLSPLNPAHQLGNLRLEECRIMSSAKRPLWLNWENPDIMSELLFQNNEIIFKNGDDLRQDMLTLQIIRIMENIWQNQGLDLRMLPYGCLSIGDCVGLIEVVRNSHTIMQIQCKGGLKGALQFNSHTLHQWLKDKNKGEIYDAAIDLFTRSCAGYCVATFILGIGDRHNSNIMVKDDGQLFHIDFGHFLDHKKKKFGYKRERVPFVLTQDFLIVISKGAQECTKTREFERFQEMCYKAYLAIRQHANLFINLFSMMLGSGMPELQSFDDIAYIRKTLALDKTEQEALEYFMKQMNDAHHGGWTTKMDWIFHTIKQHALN

Chain of PIK3CB (Human) (P42338 whole entry, looked up): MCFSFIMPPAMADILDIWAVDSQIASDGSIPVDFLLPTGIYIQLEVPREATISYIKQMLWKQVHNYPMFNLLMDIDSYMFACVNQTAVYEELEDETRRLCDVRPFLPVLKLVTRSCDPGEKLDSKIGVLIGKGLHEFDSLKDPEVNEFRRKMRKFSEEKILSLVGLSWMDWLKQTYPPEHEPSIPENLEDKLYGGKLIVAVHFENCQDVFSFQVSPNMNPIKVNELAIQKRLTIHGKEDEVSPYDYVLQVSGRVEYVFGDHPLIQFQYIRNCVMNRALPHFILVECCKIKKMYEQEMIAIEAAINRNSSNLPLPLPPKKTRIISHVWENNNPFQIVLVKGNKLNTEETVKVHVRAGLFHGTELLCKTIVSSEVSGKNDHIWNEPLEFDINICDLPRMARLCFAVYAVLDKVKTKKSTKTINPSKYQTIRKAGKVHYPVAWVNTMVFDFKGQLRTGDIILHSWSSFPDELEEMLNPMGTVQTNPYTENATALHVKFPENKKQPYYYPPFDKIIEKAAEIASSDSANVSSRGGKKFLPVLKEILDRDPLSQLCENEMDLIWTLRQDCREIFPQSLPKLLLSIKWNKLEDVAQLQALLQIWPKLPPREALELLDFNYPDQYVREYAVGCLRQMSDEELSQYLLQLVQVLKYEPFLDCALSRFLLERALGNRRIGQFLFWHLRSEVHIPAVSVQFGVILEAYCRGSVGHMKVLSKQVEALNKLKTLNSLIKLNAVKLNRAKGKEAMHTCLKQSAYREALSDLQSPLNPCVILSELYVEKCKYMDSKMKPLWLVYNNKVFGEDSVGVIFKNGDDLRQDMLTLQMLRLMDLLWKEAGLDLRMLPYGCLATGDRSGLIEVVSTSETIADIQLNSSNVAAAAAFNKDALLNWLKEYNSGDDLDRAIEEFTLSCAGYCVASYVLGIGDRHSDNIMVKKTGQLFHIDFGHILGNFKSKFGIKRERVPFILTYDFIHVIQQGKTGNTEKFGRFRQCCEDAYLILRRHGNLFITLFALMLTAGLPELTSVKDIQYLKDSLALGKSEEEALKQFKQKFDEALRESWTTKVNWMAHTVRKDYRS
Chain of PIK3CD (Human) (O00329 whole entry, looked up): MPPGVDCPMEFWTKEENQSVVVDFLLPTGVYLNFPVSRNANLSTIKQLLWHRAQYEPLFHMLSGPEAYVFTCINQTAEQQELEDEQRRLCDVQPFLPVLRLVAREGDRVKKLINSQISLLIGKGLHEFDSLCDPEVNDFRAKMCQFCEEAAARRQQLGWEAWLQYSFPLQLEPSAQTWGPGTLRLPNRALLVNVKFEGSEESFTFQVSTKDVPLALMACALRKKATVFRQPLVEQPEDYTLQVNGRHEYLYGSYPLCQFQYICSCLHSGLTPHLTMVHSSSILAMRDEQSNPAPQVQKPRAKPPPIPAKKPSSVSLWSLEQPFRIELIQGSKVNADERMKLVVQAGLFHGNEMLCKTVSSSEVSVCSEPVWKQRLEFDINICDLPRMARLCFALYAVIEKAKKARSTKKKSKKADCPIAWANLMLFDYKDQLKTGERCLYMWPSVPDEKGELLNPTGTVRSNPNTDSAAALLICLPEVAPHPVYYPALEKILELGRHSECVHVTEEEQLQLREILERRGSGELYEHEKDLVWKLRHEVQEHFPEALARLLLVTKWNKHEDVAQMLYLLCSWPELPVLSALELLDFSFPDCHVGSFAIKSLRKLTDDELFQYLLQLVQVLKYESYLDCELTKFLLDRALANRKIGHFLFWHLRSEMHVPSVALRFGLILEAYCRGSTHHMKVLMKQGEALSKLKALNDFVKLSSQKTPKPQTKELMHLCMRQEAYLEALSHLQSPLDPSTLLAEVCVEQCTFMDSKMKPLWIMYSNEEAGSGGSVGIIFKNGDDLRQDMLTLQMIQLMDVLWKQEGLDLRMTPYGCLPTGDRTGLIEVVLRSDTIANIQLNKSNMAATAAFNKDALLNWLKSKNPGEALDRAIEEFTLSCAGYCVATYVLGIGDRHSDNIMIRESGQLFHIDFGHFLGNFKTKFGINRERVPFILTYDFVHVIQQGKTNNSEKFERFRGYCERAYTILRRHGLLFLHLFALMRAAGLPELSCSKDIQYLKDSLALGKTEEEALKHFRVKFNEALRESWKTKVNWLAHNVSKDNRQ
Chain of PIK3CG (human) (P48736 whole entry, looked up): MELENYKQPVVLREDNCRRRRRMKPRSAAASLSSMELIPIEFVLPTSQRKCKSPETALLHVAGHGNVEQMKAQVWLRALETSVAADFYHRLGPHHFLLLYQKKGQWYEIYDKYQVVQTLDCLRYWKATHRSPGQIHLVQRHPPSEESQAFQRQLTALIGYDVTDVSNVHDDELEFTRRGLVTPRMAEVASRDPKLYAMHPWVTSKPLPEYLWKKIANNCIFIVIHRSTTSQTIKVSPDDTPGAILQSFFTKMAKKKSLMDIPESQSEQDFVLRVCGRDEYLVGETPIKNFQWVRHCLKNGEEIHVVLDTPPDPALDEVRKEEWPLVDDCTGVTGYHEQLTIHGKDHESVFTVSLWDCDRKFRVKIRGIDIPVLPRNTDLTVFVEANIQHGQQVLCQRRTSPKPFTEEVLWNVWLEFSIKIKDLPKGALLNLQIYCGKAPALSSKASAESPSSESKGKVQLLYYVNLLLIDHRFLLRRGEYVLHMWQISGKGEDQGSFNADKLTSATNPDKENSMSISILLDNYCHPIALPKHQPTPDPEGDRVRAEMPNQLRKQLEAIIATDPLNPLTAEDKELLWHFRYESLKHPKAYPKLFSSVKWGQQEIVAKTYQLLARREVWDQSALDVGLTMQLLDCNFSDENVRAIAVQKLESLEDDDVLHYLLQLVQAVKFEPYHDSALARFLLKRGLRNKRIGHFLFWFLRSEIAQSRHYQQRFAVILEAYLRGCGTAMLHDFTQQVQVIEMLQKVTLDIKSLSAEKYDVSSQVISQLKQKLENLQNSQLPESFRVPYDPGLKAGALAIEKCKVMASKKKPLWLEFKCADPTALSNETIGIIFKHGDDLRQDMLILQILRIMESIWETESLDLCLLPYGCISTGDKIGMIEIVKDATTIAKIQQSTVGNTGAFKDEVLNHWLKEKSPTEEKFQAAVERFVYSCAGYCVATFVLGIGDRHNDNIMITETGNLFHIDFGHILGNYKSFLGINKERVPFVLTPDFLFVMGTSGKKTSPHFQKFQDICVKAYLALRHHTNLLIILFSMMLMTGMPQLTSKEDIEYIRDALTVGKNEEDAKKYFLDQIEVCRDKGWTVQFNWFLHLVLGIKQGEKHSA

Row | IC50 [1] | IC50 [2] | IC50 [3] | IC50 [4] | Structure (SMILES)
1 | 17 nM | 6 nM | 529 nM | 21 nM | Nc1ncc(-c2cc(N3C(=O)OC[C@@H]3CO)nc(N3CCOCC3)n2)c(C(F)(F)F)n1
2 | 153 nM | 192 nM | 8790 nM | 107 nM | Nc1cc(C(F)(F)F)c(-c2cc(N3CCN(c4ccccc4)C3=O)nc(N3CCOCC3)n2)cn1
3 | – | – | – | 5 nM | C[C@@H](O)C[C@H]1OC(=O)N(c2cc(-c3cnc(N)nc3C(F)(F)F)nc(N3CCOCC3)n2)[C@H]1C
4 | 1040 nM | 875 nM | – | 134 nM | Nc1cc(C(F)(F)F)c(-c2cc(N3CCOC(c4ccccc4)C3)nc(N3CCOCC3)n2)cn1 (stereo not given)
5 | 2320 nM | 2750 nM | 4630 nM | 592 nM | Nc1cc(C(F)(F)F)c(-c2cc(N3CCS(=O)(=O)CC3)nc(N3CCOCC3)n2)cn1
6 | – | 124 nM | 290 nM | 5 nM | C[C@H]1[C@@H](CC(C)(C)O)OC(=O)N1c1cc(-c2cnc(N)nc2C(F)(F)F)nc(N2CCOCC2)n1.C[C@H]1[C@H](CC(C)(C)O)OC(=O)N1c1cc(-c2cnc(N)nc2C(F)(F)F)nc(N2CCOCC2)n1
7 | 296 nM | 214 nM | 5270 nM | 125 nM | Nc1cc(C(F)(F)F)c(-c2cc(N3CCCCC3=O)nc(N3CCOCC3)n2)cn1
8 | – | 48 nM | 145 nM | 6 nM | Nc1ncc(-c2cc(N3C(=O)O[C@H]4[C@H](O)CC[C@H]43)nc(N3CCOCC3)n2)c(C(F)(F)F)n1
9 | – | 11 nM | 205 nM | 5 nM | C[C@H](O)C[C@H]1OC(=O)N(c2cc(-c3cnc(N)nc3C(F)(F)F)nc(N3CCOCC3)n2)[C@H]1C
10 | 80 nM | – | 464 nM | – | Nc1ncc(-c2cc(N3CCOCC3)nc(N3CCOCC3)n2)c(C(F)(F)F)n1
11 | 692 nM | 1250 nM | 4320 nM | 359 nM | Nc1cc(C(F)(F)F)c(-c2cc(N3CCC(=O)CC3)nc(N3CCOCC3)n2)cn1
